According to patent US20250185696A1, “NOVEL MENAQUINONE-N (VITAMIN-K2-7) SUPPLEMENTATION FOR LIVESTOCK AND POULTRY” (SYNERGIA LIFE SCIENCES PVT LTD., priority 2022, published 2025):
“And” between values parts separate entries of the source, which are not always exact repeats. Equal entries are not always repeated.

Assays:
[1] = tested on: Vencobb 400 breed of broiler chicken; experiment: Pilot study in chicks: body weight; assay type: in vivo; details: Treatment group
Protocol: (§1) A pilot study in 5605 chicks to evaluate the role of Menaquinone-n in bird weight increase, FCR and cost efficiency. The chicks were divided into Treatment group (N=2839) and Control group (N=2766). Menaquinone-7 (provided by Synergia Life Sciences as a 2000 ppm water dispersible powder) was administered to the treatment group for 30 days as per dosage outlined in Table 1. The birds were acclimatized for initial 4 days. Menaquinone-7 in divided doses was started on day 5 till day 30 and they were vaccinated on day 6.
(§2) 5605 day old chicks were selected for the study. They were divided into Treatment group consisting of 2839 chicks, while the remaining 2766 were included in the Control group. The chicks were acclimatized for initial 4 days.
(§3) Menaquinone-7 (provided by Synergia Life Sciences as a 2000 ppm water dispersible powder) was administered daily […] to the treatment group in daily dosages as outlined in Table 1. Menaquinone-7 in divided doses was started on day 5 till day 30 and the chicks were vaccinated on day 6. The body weight of the chicks was determined, and mortality rate observed on Day 11, Day 16, Day 22 and Day 28.
(§4) A poultry farm with two open shades was selected for the study. Vencobb 400 breed of broiler chicken were selected for the study. Vencobb 400 breed was selected because at breeder level it is an early maturing bird with early peak, sustained production and better feed efficiency. Vencobb 400 is known for its proven adaptability to varied climatic conditions and husbandry practices.
(§5) The chicks were housed in poultry sheds with tin rooting and open shade sides. Water was fed ad libitum through bell water feeders. The litter consisted of rice husk before housing the birds the cages were sanitized with hypo chloride, The chicks were provided with feed supplied from Godrej Tyson Foods, ad libitum.
(§6) Menaquinone 7 supplementation was in a drinking water as in Table 1. Water was made up to the required level as required daily.
Body weight was estimated by catching 5 birds in each group and determining the total weight and reporting the average at the intervals recorded in Table 2. At the end of treatment, after catching the total catching weight was recorded and the average weight determined.

[2] = tested on: Vencobb 400 breed of broiler chicken; experiment: Pilot study in chicks: mortality; assay type: in vivo; details: for Cumulative Mortality: Treatment group (N=2839)
Protocol: as §1, §2, §3, §4, §5, §6

[3] = tested on: Vencobb 400 breed of broiler chicken; experiment: Pilot study in chicks: cage side observations; assay type: in vivo
Protocol: Cage side observations like daily life behavior patterns, odor of litter etc. were recorded.

[4] = tested on: Birds; experiment: Comparative study of control and treated group (Table 4): mortality, weight, FCR; assay type: in vivo; details: Treated group, 2000 birds, K2 supplementation 15 g of 2000 ppm
Protocol: Feed conversion ratio was calculated by taking the total amount of feed consumed by the bird and dividing it by the amount of weight gained.

[5] = regular MK-7 intake; cited from earlier work

With CC(C)=CCC/C(C)=C/CC/C(C)=C/CC/C(C)=C/CC/C(C)=C/CC/C(C)=C/CC/C(C)=C/CC1=C(C)C(=O)c2ccccc2C1=O [Menaquinone-7] the “Average weight (kg) per chick” value ([1]; Day 0 (before dosing; dosing day 5 to day 30 in drinking water)) was 0.05 kg, the “Average weight (kg) per chick” value ([1]; Day 5 (start of dosing)) was 0.05 kg and the “Average weight (kg) per chick” value ([1]; Day 11) was 0.622 kg. For the same compound, the “Average weight (kg) per chick” value ([1]; Day 16) was 0.966 kg, the “Average weight (kg) per chick” value ([1]; Day 22) was 1.36 kg and the “Average weight (kg) per chick” value ([1]; Day 28) was 2 kg and 2.0 kg. For the same compound, the “Cumulative Mortality” value ([2]; Day 0) was 0, the “Cumulative Mortality” value ([2]; Day 5 (start of dosing)) was 30 and the “Cumulative Mortality” value ([2]; Day 11) was 61. The “Cumulative Mortality” value ([2]; Day 16) was 87, the “Cumulative Mortality” value ([2]; Day 22) was 95 and the “Cumulative Mortality” value ([2]; Day 28) was 100. The “Overall reduction in mortality rate” value ([2]; Treatment group versus control group, end of 28th day) was “over 4%”, the Mortality rate/day ([2]; Treatment group, Day 5 (start of dosing)) was 7.5 per day and the Mortality rate/day ([2]; Treatment group, Day 11) was 2.8 per day. For the same compound, the Mortality rate/day ([2]; Treatment group, Day 16) was 5.2 per day, the Mortality rate/day ([2]; Treatment group, Day 22) was 1.3 per day and the Mortality rate/day ([2]; Treatment group, Day 28) was 0.8 per day. The “Mortality % (overall mortality)” value ([2]; Treatment group, end of 28th day) was 3.52%, the “Ammonia odor in the litter (cage side observation)” value ([3]; Treatment group as compared to the control group) was “reduced ammonia odor” and the “Stress due to heat, vaccination and crowding (cage side observation)” value ([3]; Treatment group in comparison to the control group) was “appeared comfortable”. The Avg wt./bird [4] was 2.1560 kg, the FCR [4] was 0.728 and the Mortality [4] was 1.8%. The “Blood levels, times higher than when not regularly taken” value [5] was 7-8 times.
